From patent publication US20220133701A1, “METHODS OF TREATING PAIN” (Yeda Research and Development Co. Ltd., priority 2019, published 2022) come the findings set out here.

Holding throughout (format): in vivo, mouse
Data set [1] concerns SNI mice. The data set can be described thus: CatWalk gait analysis (footprint width) in SNI mice. The settings on record: AAV9 shRNA, 60 days post-injury, vs shCtrl (FIG. 4D). As to the method: CatWalk gait analysis and training was carried out as previously described [Perry et al. Neuron 75, 294 (2012)]. Motivation was achieved by a combination of food restriction during the initial training and placing of palatable reward at runway ends. The test was repeated three times for each mouse. Data were collected and analyzed using the Catwalk Ethovision XT11 software (Noldus Information Technology, The Netherlands). The analyzed indices are reported for each animal as print area and print width.

Data set [2] concerns mice. The data set can be described thus: Rotarod. As to conditions: wild-type mice three weeks after intrathecal AAV9 shRNA (FIG. 5B). On the procedure: Rotarod experiments to assess integrity of balance and coordination [Crawley. Neuron 57, 809 (2008)] was carried out using a ROTOR-ROD™ system (83×91×61-SD Instruments, San Diego). Mice were subjected to three trials with 20 minutes inter-trial intervals over three consecutive days, at three weeks and five weeks after AAV9 injection, calculating the daily average each time. Rotarod acceleration was set to 20 rpm in 240 seconds. Latency to fall (sec) was recorded and the average of the three or six consecutive trials was used as an index of motor coordination and balance.

In data set [3] the test system is mice. The data set can be described thus: Open field. As to conditions: wild-type mice three weeks after intrathecal AAV9 shRNA (FIG. 5A). On the procedure:
Motility and anxiety-like behaviors were assayed in the open field (OF) as previously described^8. Mouse activity was tracked and recorded using VideoMot2 (TSE System, Germany). OF was performed under 120 1× for the assessment of anxiety-related behaviors. The OF raw data were further analyzed with COLORcation [Dagan et al. J Neurosci Methods 270, 9 (2016)].

Data set [4] has as its system SNI mice. Briefly: Spared nerve injury (SNI) model of neuropathic pain, paw withdrawal threshold (PWT) by Von Frey test. As to conditions: SNI mice, viral (AAV9) knockdown followed by SNI, from day 60 onward, vs shCtrl (FIG. 4E). On the procedure:
Chronic neuropathic pain was assessed using the spared nerve injury (SNI) model^13. Mice were anaesthetized with Ketamine/Xylazine (10 mg/kg body weight, intraperitoneal). The skin on the lateral surface of the thigh was incised and a section was made directly through the biceps femoris muscle in order to expose the sciatic nerve and its three terminal branches: the sural, common peroneal and tibial nerves. The SNI procedure comprised an axotomy and ligation of the tibial and common peroneal nerves leaving the sural nerve intact. The peroneal and the tibial nerves were tight-ligated and sectioned distal to the ligation. […] Following, mice were evaluated over a period of three months.
Von Frey tests of sensitivity to mechanical stimuli were conducted as previously described [Marvaldi et al. Dev Neurobiol 75, 217 (2015)]. Briefly, mice were placed in acrylic chambers suspended above a wire mesh grid and allowed to habituate to the testing apparatus for one hour prior to experiments. When the mouse was calm, the von Frey filaments were pressed against the plantar surface of the paw until the filament buckled and held for a maximum of 3 seconds. A positive response was noted if the paw was sharply withdrawn on application of the filament. Testing began with filament target force 13.7 milliNewtons and progressed according to an up-down method. 2 gram Von Frey filaments were used to assess sensitivity to noxious mechanical stimulation, scoring mice responses as follows: 0, no response; 1, visible signs of discomfort without leg withdrawal; 2, withdrawal of the leg.

Setting [5] is: listed as anti-importin α3 shRNA.
Where [6] appears, read: listed as anti-importin α3 shRNAs.

Regarding “shα3: AAV9 expressing an importin α3 targeting shRNA (SEQ ID NO: 8), intrathecal injection (DNA GATCCGGCTTTGACAAACATTGCATGAAGCTTGATGCAATGTTTGTCAAAGCCTTTTTT)”, the “footprint width / paw morphology and gait parameters, Catwalk” value in data set [1] is “significant recovery by 60 days”; in data set [1] (setting [5]) it was “regained unaltered paw morphology and gait parameters”. Further, the figures for the “rotarod (motor coordination)” value in data set [2] and in data set [2] (setting [6]) were “No deficits were observed in either test” and “no effect”, respectively. For the same substance, the “open field (exploratory behaviour)” value in data set [3] is “No deficits were observed in either test”; in data set [3] (setting [6]) it was “no effect”. Further, the “paw withdrawal threshold (PWT), Von Frey test” value in data set [4] is reported as “recovery”; in data set [4] (setting [5]), “significant recovery of the paw withdrawal reflex”.
